Assay: Tissue distribution (radiometric analysis of excised organs) after tail vein injection of radiolabeled fatty acid analogs in rats
Assay type: in vivo, Sprague Dawley rats
Conditions: rat
Method: Pharmacokinetic characterization was accomplished by radiometric analysis of heart, blood, lung, kidney, liver and other tissue at various times following administration of the 99mTc-labeled fatty acid analogs to rats. […] Six new compounds were evaluated at up to four time points each (5, 15, 60, and 120 minutes) with a minimum of three animals per time point. Non-anesthetized animals were injected with 20-50 μCi in 100 μl via the tail vein and sacrificed at increasing time points post injection. The organs were excised and counted in a gamma counter. Experiments were also conducted to compare the effects of injection media using 10% ethanol, 10% bovine serum albumin and 7% ursodeoxycholic acid on distribution.

CC(CCCCCCCCCCCCc1ccc(I)cc1)CC(=O)O (centres unmarked) [BMIPP]
Percent injected dose per gram, Blood (15-min post injection, blood): 1.30 ± 0.19 Percent injected dose per gram
Percent injected dose per gram, Heart (15-min post injection, heart): 4.60 ± 0.63 Percent injected dose per gram
Percent injected dose per gram, Kidneys (15-min post injection, kidneys): 4.09 ± 0.82 Percent injected dose per gram
Percent injected dose per gram, Liver (15-min post injection, liver): 2.97 ± 0.56 Percent injected dose per gram
Percent injected dose per gram, Lung (15-min post injection, lung): 1.83 ± 0.22 Percent injected dose per gram
heart-to-blood ratio (at 15 minutes): 2.2
heart-to-blood ratio (at 60 minutes): 1.6
blood retention / clearance (in words) (blood): slow blood clearance
heart accumulation / extraction (in words) (heart): high extraction into the heart
uptake in the heart (heart, at 15 minutes): 3.49 percent per organ
uptake in the heart (heart, at 60 minutes): 1.62 percent per organ
less heart uptake with ethanol injection media than with ursodeoxycholic acid (heart, 10% ethanol versus 7% ursodeoxycholic acid injection media): ~75%
liver activity (liver, end of the 45 minute period (60 minutes)): 7.2 percent per organ
liver activity (liver, start of the 45 minute period (15 minutes)): 19.7 percent per organ

— patent US7556794B2, “Pendant fatty acid imaging agents” (Molecular Insight Pharmaceuticals, Inc., priority 2002, dated 2009)
